Tests used:
[1] = Evaluation of coloring compound for its solubility in a styrene monomer; type: physicochemical; conditions: in a styrene monomer at 25° C.
Description: <Evaluation of Coloring Compound for its Solubility>
A coloring compound was tested for its solubility in a styrene monomer at a temperature of 25° C. of dissolution.
The coloring compound was judged to have sufficient solubility when the percentage by which the coloring compound dissolved in the styrene monomer was 1 mass % or more.

[2] = Evaluation of coloring compound for lightfastness (sun tester irradiation, color difference ΔE); type: physicochemical; conditions: ΔE after sun tester irradiation, 765 w/m^2, 50° C., 20 hours, on CLC color copy paper
Description: <Evaluation of Coloring Compound for Lightfastness>
A coloring compound was dissolved in a mixed liquid prepared by mixing tetrahydrofuran and cyclohexanone at a volume ratio of 1:1, whereby a 0.04-mol/l coloring compound solution was prepared. The coloring compound solution was filtrated through a filter (pore diameter: 0.2 μm). The coloring compound solution after the filtration was applied to CLC color copy paper (manufactured by Canon Inc.) by a bar coat method (Bar No. 3), and the resultant test paper was dried with air for one whole day and night. Next, the test paper was tested by being irradiated with light from a sun tester (XF-180CPS, manufactured by Shimadzu Corporation) at an illuminance of 765 w/m^2 and a temperature of 50° C. for an irradiation time of 20 hours. The test paper was analyzed with a spectrophotometer (SPECTROLINO, manufactured by Gretag Macbeth) before and after the irradiation test. The chromaticities (L*, a*, b*) of the test paper in an L*a*b* colorimetric system were measured before and after the irradiation test. A color difference (ΔE) was calculated from the following equation.
The coloring compound was evaluated for its lightfastness as described below. • A: ΔE is less than 15. • B: ΔE is 15 or more and less than 30. • C: ΔE is 30 or more.
The coloring compound was judged to have good lightfastness when ΔE was less than 30.

CCCCC(CC)CN(CC(CC)CCCC)C(=O)c1ccccc1/N=N/c1c(O)[nH]c(=O)c(C#N)c1C (centres unmarked) [D1]
Solubility [1]: A (The percentage by which the coloring compound dissolves in the styrene monomer is 10 mass % or more) | Lightfastness [2]: A (ΔE is less than 15)

CCCCCCN(CCCCCC)C(=O)c1ccccc1N=Nc1c(O)[nH]c(=O)c(C#N)c1C [D3]
Solubility [1]: A (The percentage by which the coloring compound dissolves in the styrene monomer is 10 mass % or more) | Lightfastness [2]: A (ΔE is less than 15)

CCCCC(CC)CN(CC(CC)CCCC)C(=O)c1ccccc1N=Nc1c(C)c(C#N)c(=O)n(CC)c1O (centres unmarked) [E11, reference compound]
Solubility [1]: A (The percentage by which the coloring compound dissolves in the styrene monomer is 10 mass % or more) | Lightfastness [2]: C (ΔE is 30 or more)

CCCCC(CC)CN(CC(CC)CCCC)C(=O)c1ccc(N=Nc2c(C)c(C#N)c(=O)n(CC)c2O)cc1 (centres unmarked) [E6, reference compound]
Solubility [1]: A (The percentage by which the coloring compound dissolves in the styrene monomer is 10 mass % or more) | Lightfastness [2]: C (ΔE is 30 or more)

CCCCn1c(O)c(N=Nc2ccc(C(=O)OC)cc2)c(C)c(C#N)c1=O [E5, reference compound]
Solubility [1]: C (The percentage by which the coloring compound dissolves in the styrene monomer is less than 1 mass %) | Lightfastness [2]: C (ΔE is 30 or more)

Cc1c(N=Nc2ccc(N(C)C)cc2)c(O)n(CCCl)c(=O)c1C#N [E4, reference compound]
Solubility [1]: B (The percentage by which the coloring compound dissolves in the styrene monomer is 1 mass % or more and less than 10 mass %) | Lightfastness [2]: C (ΔE is 30 or more)

CCCCCCCCCCCCN(CCCCCCCCCCCC)C(=O)c1cc(Cl)ccc1N=Nc1c(O)[nH]c(=O)c(C#N)c1C [D5]
Solubility [1]: A (The percentage by which the coloring compound dissolves in the styrene monomer is 10 mass % or more) | Lightfastness [2]: B (ΔE is 15 or more and less than 30)

CCCCc1c(N=Nc2ccccc2C(=O)NCC(CC)CCCC)c(O)[nH]c(=O)c1C#N (centres unmarked) [D15]
Solubility [1]: B (The percentage by which the coloring compound dissolves in the styrene monomer is 1 mass % or more and less than 10 mass %) | Lightfastness [2]: A (ΔE is less than 15)

CCCCc1c(N=Nc2ccccc2C(=O)N2CCC(CCC)CC2)c(O)[nH]c(=O)c1C#N [D16]
Solubility [1]: B (The percentage by which the coloring compound dissolves in the styrene monomer is 1 mass % or more and less than 10 mass %) | Lightfastness [2]: A (ΔE is less than 15)

CCCCC(CC)CN(CC(CC)CCCC)C(=O)c1ccccc1N=Nc1c(C)cc(=O)[nH]c1O (centres unmarked) [D7]
Solubility [1]: B (The percentage by which the coloring compound dissolves in the styrene monomer is 1 mass % or more and less than 10 mass %) | Lightfastness [2]: B (ΔE is 15 or more and less than 30)

CCCCCCCCc1ccc(OC(=O)c2ccccc2N=Nc2c(O)[nH]c(=O)c(C#N)c2C)cc1 [D8]
Solubility [1]: B (The percentage by which the coloring compound dissolves in the styrene monomer is 1 mass % or more and less than 10 mass %) | Lightfastness [2]: A (ΔE is less than 15)

CCCCn1c(O)c(N=Nc2ccccc2[N+](=O)[O-])c(C)c(C#N)c1=O [E8, reference compound]
Solubility [1]: C (The percentage by which the coloring compound dissolves in the styrene monomer is less than 1 mass %) | Lightfastness [2]: C (ΔE is 30 or more)

Cc1c(N=Nc2ccccc2C(=O)N(c2ccccc2)c2ccccc2)c(O)[nH]c(=O)c1C#N [D12]
Solubility [1]: B (The percentage by which the coloring compound dissolves in the styrene monomer is 1 mass % or more and less than 10 mass %) | Lightfastness [2]: A (ΔE is less than 15)

CCCCc1c(N=Nc2ccc(C)cc2C(=O)OCC(CC)CCCC)c(O)[nH]c(=O)c1C#N (centres unmarked) [D6]
Solubility [1]: B (The percentage by which the coloring compound dissolves in the styrene monomer is 1 mass % or more and less than 10 mass %) | Lightfastness [2]: B (ΔE is 15 or more and less than 30)

CCCCC(CC)CN(CC(CC)CCCC)C(=O)c1ccccc1N=Nc1c(O)[nH]c(=O)c(C(N)=O)c1C (centres unmarked) [D14]
Solubility [1]: B (The percentage by which the coloring compound dissolves in the styrene monomer is 1 mass % or more and less than 10 mass %) | Lightfastness [2]: B (ΔE is 15 or more and less than 30)

CCCCC(CC)CNS(=O)(=O)c1ccc(N=Nc2c(C)c(C#N)c(=O)n(CCCC)c2O)cc1 (centres unmarked) [E3, reference compound]
Solubility [1]: A (The percentage by which the coloring compound dissolves in the styrene monomer is 10 mass % or more) | Lightfastness [2]: C (ΔE is 30 or more)

CCCCCCCCCCCCN(CCCCCCCCCCCC)C(=O)c1ccccc1N=Nc1c(O)[nH]c(=O)c(C#N)c1C [D4]
Solubility [1]: A (The percentage by which the coloring compound dissolves in the styrene monomer is 10 mass % or more) | Lightfastness [2]: A (ΔE is less than 15)

Cc1c(N=Nc2ccccc2C(=O)N(Cc2ccccc2)Cc2ccccc2)c(O)[nH]c(=O)c1C#N [D11]
Solubility [1]: B (The percentage by which the coloring compound dissolves in the styrene monomer is 1 mass % or more and less than 10 mass %) | Lightfastness [2]: A (ΔE is less than 15)

CCCCn1c(O)c(N=Nc2ccc(Cl)cc2)c(C)c(C#N)c1=O [E2, reference compound]
Solubility [1]: B (The percentage by which the coloring compound dissolves in the styrene monomer is 1 mass % or more and less than 10 mass %) | Lightfastness [2]: C (ΔE is 30 or more)

CCCCC(CC)CN(CC(CC)CCCC)C(=O)c1ccccc1N=Nc1c(O)[nH]c(=O)c(C#N)c1-c1ccccc1 (centres unmarked) [D2]
Solubility [1]: A (The percentage by which the coloring compound dissolves in the styrene monomer is 10 mass % or more) | Lightfastness [2]: A (ΔE is less than 15)

CCCCC(CC)CN(CC(CC)CCCC)C(=O)c1ccc(N=Nc2c(O)[nH]c(=O)c(C#N)c2C)cc1 (centres unmarked) [E10, reference compound]
Solubility [1]: A (The percentage by which the coloring compound dissolves in the styrene monomer is 10 mass % or more) | Lightfastness [2]: C (ΔE is 30 or more)

CCCCc1c(N=Nc2ccc(OC)cc2C(=O)OC(c2ccccc2)c2ccccc2)c(O)[nH]c(=O)c1C#N [D10]
Solubility [1]: B (The percentage by which the coloring compound dissolves in the styrene monomer is 1 mass % or more and less than 10 mass %) | Lightfastness [2]: B (ΔE is 15 or more and less than 30)

CCCCC(CC)CN(CC(CC)CCCC)C(=O)c1cccc(N=Nc2c(O)[nH]c(=O)c(C#N)c2C)c1 (centres unmarked) [E9, reference compound]
Solubility [1]: C (The percentage by which the coloring compound dissolves in the styrene monomer is less than 1 mass %) | Lightfastness [2]: A (ΔE is less than 15)

CCCCc1ccc(N=Nc2c(O)[nH]c(=O)c(C#N)c2C)cc1 [E1, reference compound]
Solubility [1]: B (The percentage by which the coloring compound dissolves in the styrene monomer is 1 mass % or more and less than 10 mass %) | Lightfastness [2]: C (ΔE is 30 or more)

CCCCn1c(O)c(N=Nc2cccc(C)c2)c(C)c(C#N)c1=O [E7, reference compound]
Solubility [1]: B (The percentage by which the coloring compound dissolves in the styrene monomer is 1 mass % or more and less than 10 mass %) | Lightfastness [2]: C (ΔE is 30 or more)

From patent publication US7833685B2, “Coloring compound and yellow toner containing the coloring compound” (Canon Kabushiki Kaisha, priority 2006, dated 2010)
